Experiments:
[1] = degree of polarization of anisotropic dye film formed by wet system film-forming method; format: physicochemical
Text: In the following Examples, the degree of polarization was obtained by measuring the transmittance of an anisotropic dye film by a spectrophotometer having an iodine type polarizing element disposed in an incident optical system, followed by calculation in accordance with the following formula: Degree of polarization (P %)={(Ty−Tz)/(Ty+Tz)}×100
Tz: transmittance of a dye film for a polarized light in the absorption axis direction
Ty: transmittance of a dye film for a polarized light in the polarization axis direction
On the other hand, as a substrate, a glass substrate having a polyimide oriented film formed thereon by silk printing (75 mm×25 mm, thickness 1.1 mm, the polyimide oriented film with a polyimide film thickness of about 800 Å preliminarily subjected to rubbing treatment with cotton cloth) was prepared. […]
The transmittance (Tz) of the obtained anisotropic dye film for a polarized light having a plane of vibration in the absorption axis direction in the plane of the dye film and the transmittance (Ty) for a polarized light having a plane of vibration in the polarization axis direction in the plane of the dye film were measured and shown in FIG. 1. […]

[2] = transmission chromaticity and excitation purity of dye aqueous solution under standard illuminant D65; format: physicochemical
Protocol: Here the excitation purity is obtained in such a manner that the chromaticity coordinates N of standard illuminant and the chromaticity coordinates C of the obtained dye in the chromaticity diagram are connected with a straight line, and the wavelength corresponding to the intersection point of the extension of the straight line and the spectrum locus is taken as the dominant wavelength, and the excitation purity is calculated from the proportion at the respective points. The chromaticity coordinate C can be obtained in such a manner that the dye is added to water to obtain a dye aqueous solution, the visible light transmittance of the aqueous solution is measured by a spectrophotometer, and the chromaticities x and y in the CIE 1964 supplementary standard […] system under standard illuminant D65 are calculated.
The excitation purity of the dye in the present invention means one measured and calculated with respect to the dye aqueous solution obtained by adding the dye to water and the excitation purity of the anisotropic dye film means one measured and calculated with respect to a film formed by applying a composition for an anisotropic dye film described hereinafter in detail to a substrate. […]

degree of polarization (P %) (light absorption anisotropy) ([1]; spin coated on rubbed polyimide/glass, from about 500 nm to about 650 nm): at least 80%
degree of polarization (P %) ([1]; vicinity of maximum absorption wavelength, from 550 nm to 600 nm): at least 90%
excitation purity (pe) ([2]; dye aqueous solution at a concentration of 10%, optical path length 0.01 mm, D65): 17%
SMILES: COc1cc(N=Nc2c(S(=O)(=O)O)cc3ccc(N=Nc4cc(S(=O)(=O)O)c(N)cc4N)cc3c2O)c(OC)cc1N=Nc1ccc(OC)c(S(=O)(=O)O)c1 [dye No. (1-1)]
trail of the chromaticity of the aqueous solution at the respective dye concentrations ([2]; C.I.E. chromaticity diagram, 10% (or 5 wt %), 1,000 ppm and 10 ppm): passed near the chromaticity (w) of standard illuminant D65

Reference: patent US20070287830A1, “Trisazo Dye, Composition Containing the Same for Anisotropic Dye Film, Anisotropic Dye Film, and Polarizing Element” (Mitsubishi Chemical Corporation, priority 2004, published 2007)
